Values joined by “and” are separate entries in the source; they are usually repeats but may differ in a detail not shown here. Equal values may be shown once. Inconclusive results and toxic doses are left out.
System: BDF1 mice, B16 melanoma ip, median survival T/C
Test: NCI In Vivo Anticancer Drug Screen. Data for tumor model B16 Melanoma (intraperitoneal) in B6D2F1 (BDF1) mice
Conditions: endpoint: median survival time, higher = longer survival
Method in brief: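 Transplantable tumor model; survival or tumor size measured; reported as T/C, treated over vehicle control.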

[1] = dose: 3.12 mg/kg/injection, schedule: Q01DX009 (ip), vehicle: saline
[2] = dose: 6.25 mg/kg/injection, schedule: Q01DX009 (ip), vehicle: saline
[3] = dose: 12.5 mg/kg/injection, schedule: Q01DX009 (ip), vehicle: saline
[4] = dose: 25.0 mg/kg/injection, schedule: Q01DX009 (ip), vehicle: saline
[5] = dose: 50.0 mg/kg/injection, schedule: Q01DX009 (ip), vehicle: saline
[6] = dose: 100.0 mg/kg/injection, schedule: Q01DX009 (ip), vehicle: Klucel (hydroxypropylcellulose) (HPC)
[7] = dose: 400.0 mg/kg/injection, schedule: Q01DX009 (ip), vehicle: Klucel (hydroxypropylcellulose) (HPC)
[8] = dose: 100.0 mg/kg/injection, schedule: Q04DX003 (ip), vehicle: Klucel (hydroxypropylcellulose) (HPC)
[9] = dose: 200.0 mg/kg/injection, schedule: Q04DX003 (ip), vehicle: Klucel (hydroxypropylcellulose) (HPC)
[10] = dose: 12.5 mg/kg/injection, schedule: Q01DX009 (ip), vehicle: Klucel (hydroxypropylcellulose) (HPC)
[11] = dose: 25.0 mg/kg/injection, schedule: Q01DX009 (ip), vehicle: Klucel (hydroxypropylcellulose) (HPC)
[12] = dose: 6.25 mg/kg/injection, schedule: Q01DX009 (ip), vehicle: saline with Tween-80
[13] = dose: 12.5 mg/kg/injection, schedule: Q01DX009 (ip), vehicle: saline with Tween-80
[14] = dose: 25.0 mg/kg/injection, schedule: Q01DX009 (ip), vehicle: saline with Tween-80
[15] = dose: 200.0 mg/kg/injection, schedule: Q01DX009 (ip), vehicle: Klucel (hydroxypropylcellulose) (HPC)
[16] = dose: 50.0 mg/kg/injection, schedule: Q01DX009 (ip), vehicle: saline with Tween-80

In the case of `CC(Cc1ccccc1)NCCn1cnc2c1c(=O)n(C)c(=O)n2C` (configuration not stated), the T/C [1] is reported as 112 % of control, the T/C [2] is reported as 115 % of control and the T/C [3] is reported as 100 % of control. For the same compound, the T/C [4] was 109 % of control and the T/C [5] was 115 % of control.

With `O=P(CCCCCCP(=O)(N1CC1)N1CC1)(N1CC1)N1CC1` the T/C [6] was 176 % of control.

With `CCCCNC(=O)Nc1cccc(C)c1C` the T/C [6] was 88 % of control and the T/C [7] was 94 % of control.

For `COc1ccc(/C(C)=N\NC(=O)c2ccccc2)cc1`, the T/C (dose: 50.0 mg/kg/injection, schedule: Q04DX003 (ip), vehicle: Klucel (hydroxypropylcellulose) (HPC)) was 95 % of control, the T/C [8] was 102 % of control and the T/C [9] was 87 % of control.

`COc1ccc(NC(=O)Nc2ccc(Cl)cc2)cc1` was tested, and the T/C [8] was 100 % of control, the T/C [9] was 95 % of control and the T/C (dose: 400.0 mg/kg/injection, schedule: Q04DX003 (ip), vehicle: Klucel (hydroxypropylcellulose) (HPC)) was 90 % of control.

In the case of `NC1=NC(=O)C(c2ccccc2)O1` (configuration not stated), the T/C [10] is reported as 94 % of control, the T/C [11] is reported as 97 % of control and the T/C [6] is reported as 102 % of control.

In the case of `C=C1C(=O)C2(C)OC2(C)C1C(=O)O` (configuration not stated), the T/C (dose: 1.25 mg/kg/injection, schedule: Q01DX009 (ip), vehicle: Klucel (hydroxypropylcellulose) (HPC)) is reported as 109 % of control, the T/C (dose: 2.5 mg/kg/injection, schedule: Q01DX009 (ip), vehicle: Klucel (hydroxypropylcellulose) (HPC)) is reported as 105 % of control and the T/C (dose: 5.0 mg/kg/injection, schedule: Q01DX009 (ip), vehicle: Klucel (hydroxypropylcellulose) (HPC)) is reported as 99 % of control. For the same compound, the T/C (dose: 10.0 mg/kg/injection, schedule: Q01DX009 (ip), vehicle: Klucel (hydroxypropylcellulose) (HPC)) was 93 % of control.

`CC(=O)OC(C)C1C2=C(C(=O)CC1(C)O)C(=O)c1c(ccc(-c3ccc4c(c3O)C(=O)C3=C(C4=O)C(C(C)OC(C)=O)C(C)(O)CC3=O)c1O)C2=O` (configuration not stated) was tested, and the T/C (dose: 1.56 mg/kg/injection, schedule: Q01DX009 (ip), vehicle: saline with Tween-80) was 110 % of control, the T/C (dose: 3.13 mg/kg/injection, schedule: Q01DX009 (ip), vehicle: saline with Tween-80) was 117 % of control and the T/C [12] was 110 % of control.

For `Cc1c(Cl)cccc1NC(=O)Nc1ccccc1Cl`, the T/C (dose: 75.0 mg/kg/injection, schedule: Q01DX009 (ip), vehicle: Klucel (hydroxypropylcellulose) (HPC)) was 106 % of control and the T/C (dose: 150.0 mg/kg/injection, schedule: Q01DX009 (ip), vehicle: Klucel (hydroxypropylcellulose) (HPC)) was 95 % of control.

With `CCCS(=O)[O-].CCCS(=O)[O-].[Zn+2]` the T/C (dose: 0.05 mg/kg/injection, schedule: Q01DX009 (ip), vehicle: saline) was 106 % of control, the T/C (dose: 0.1 mg/kg/injection, schedule: Q01DX009 (ip), vehicle: saline) was 91 % of control and the T/C (dose: 0.2 mg/kg/injection, schedule: Q01DX009 (ip), vehicle: saline) was 103 % of control. The T/C (dose: 0.4 mg/kg/injection, schedule: Q01DX009 (ip), vehicle: saline) was 101 % of control, the T/C (dose: 0.8 mg/kg/injection, schedule: Q01DX009 (ip), vehicle: saline) was 96 % of control and the T/C (dose: 1.6 mg/kg/injection, schedule: Q01DX009 (ip), vehicle: saline) was 100 % of control. For the same compound, the T/C (dose: 3.2 mg/kg/injection, schedule: Q01DX009 (ip), vehicle: saline) was 95 % of control, the T/C (dose: 6.4 mg/kg/injection, schedule: Q01DX009 (ip), vehicle: saline) was 103 % of control and the T/C (dose: 12.8 mg/kg/injection, schedule: Q01DX009 (ip), vehicle: saline) was 101 % of control.

With `NC(C(=O)O)c1ccc(CBr)cc1` (configuration not stated) the T/C (dose: 12.5 mg/kg/injection, schedule: Q01DX009 (ip), vehicle: acid diluted with saline) was 152 % of control, the T/C (dose: 25.0 mg/kg/injection, schedule: Q01DX009 (ip), vehicle: acid diluted with saline) was 157 % of control and the T/C (dose: 100.0 mg/kg/injection, schedule: Q01DX009 (ip), vehicle: acid diluted with saline) was 152 % of control. For the same compound, the T/C (dose: 200.0 mg/kg/injection, schedule: Q01DX009 (ip), vehicle: acid diluted with saline) was 157 % of control.

In the case of `CCCCCCCCCCCC1=C(O)C(=O)C=C(O)C1=O`, the T/C [12] is reported as 102 % of control, the T/C [13] is reported as 96 % of control and the T/C [14] is reported as 86 % of control.

In the case of `C=C1C(=O)OC2CC(C)C3(O)CCC(C)(CC(OC(=O)C(C)C)C12)O3` (configuration not stated), the T/C (dose: 50.0 mg/kg/injection, schedule: Q01DX009 (ip), vehicle: Klucel (hydroxypropylcellulose) (HPC)) is reported as 99 % of control, the T/C [6] is reported as 97 % of control and the T/C [15] is reported as 98 % of control.

In the case of `CN(C)c1ccc(C(=O)c2ccc(N(C)C)cc2)cc1`, the T/C (dose: 100.0 mg/kg/injection, schedule: Q04DX003 (ip), vehicle: saline) is reported as 104 % of control, the T/C (dose: 200.0 mg/kg/injection, schedule: Q04DX003 (ip), vehicle: saline) is reported as 111 % of control and the T/C (dose: 400.0 mg/kg/injection, schedule: Q04DX003 (ip), vehicle: saline) is reported as 100 % of control.

`CN(C)C1CC1c1ccccc1` (configuration not stated) was tested, and the T/C [1] was 92 % of control, the T/C [2] was 107 % of control and the T/C [3] was 97 % of control. For the same compound, the T/C [4] was 100 % of control, the T/C [5] was 105 % of control and the T/C (dose: 100.0 mg/kg/injection, schedule: Q01DX009 (ip), vehicle: saline) was 98 % of control.

In the case of `COc1ccc(C(C)=O)cc1[N+](=O)[O-]`, the T/C [16] is reported as 97 % of control, the T/C (dose: 100.0 mg/kg/injection, schedule: Q01DX009 (ip), vehicle: saline with Tween-80) is reported as 102 % of control and the T/C (dose: 200.0 mg/kg/injection, schedule: Q01DX009 (ip), vehicle: saline with Tween-80) is reported as 105 % of control.

In the case of `CCN(CC)CCCC(C)NCCCCNC(C)CCCN(CC)CC` (configuration not stated), the T/C (dose: 4.69 mg/kg/injection, schedule: Q01DX009 (ip), vehicle: alcohol) is reported as 96 % of control, the T/C (dose: 6.25 mg/kg/injection, schedule: Q01DX009 (ip), vehicle: alcohol) is reported as 115 % of control and the T/C (dose: 9.38 mg/kg/injection, schedule: Q01DX009 (ip), vehicle: alcohol) is reported as 104 % of control. For the same compound, the T/C (dose: 11.0 mg/kg/injection, schedule: Q01DX009 (ip), vehicle: water) was 122 % of control, the T/C (dose: 12.5 mg/kg/injection, schedule: Q01DX009 (ip), vehicle: alcohol) was 88 % of control and the T/C (dose: 16.5 mg/kg/injection, schedule: Q01DX009 (ip), vehicle: water) was 94 % of control. The T/C (dose: 25.0 mg/kg/injection, schedule: Q01DX009 (ip), vehicle: water) was 87 % of control and 224 % of control.

With `C=CC(=O)O` the T/C (dose: 3.13 mg/kg/injection, schedule: Q01DX009 (ip), vehicle: saline) was 112 % of control, the T/C [2] was 114 % of control and the T/C [3] was 114 % of control.

For `O=C(Nc1ccccc1F)Nc1cccc2ccccc12`, the T/C [6] was 100 % of control, the T/C [15] was 88 % of control and the T/C [7] was 94 % of control.

In the case of `O=C1CC(=O)C(Br)=C1Br`, the T/C (dose: 0.08 mg/kg/injection, schedule: Q01DX009 (ip), vehicle: saline with Tween-80) is reported as 97 % of control, the T/C (dose: 0.15 mg/kg/injection, schedule: Q01DX009 (ip), vehicle: saline with Tween-80) is reported as 93 % of control and the T/C (dose: 0.3 mg/kg/injection, schedule: Q01DX009 (ip), vehicle: saline with Tween-80) is reported as 95 % of control. For the same compound, the T/C (dose: 0.37 mg/kg/injection, schedule: Q04DX003 (ip), vehicle: saline with Tween-80) was 94 % of control, the T/C (dose: 75.0 micrograms/kg/injection, schedule: Q04DX003 (ip), vehicle: saline with Tween-80) was 92 % of control and the T/C (dose: 150.0 micrograms/kg/injection, schedule: Q04DX003 (ip), vehicle: saline with Tween-80) was 92 % of control. The T/C (dose: 300.0 micrograms/kg/injection, schedule: Q04DX003 (ip), vehicle: saline with Tween-80) was 91 % of control.

`CC(CCc1ccccc1)NN` (configuration not stated) was tested, and the T/C [1] was 122 % of control, the T/C [2] was 112 % of control and 116 % of control and the T/C [3] was 113 % of control. The T/C [4] was 103 % of control and 112 % of control.

`COC1=CC(=O)C(OC)=C(OC)C1=O` was tested, and the T/C (dose: 3.12 mg/kg/injection, schedule: Q01DX009 (ip), vehicle: saline with Tween-80) was 98 % of control, the T/C [12] was 98 % of control and the T/C [13] was 100 % of control. The T/C [14] was 101 % of control and the T/C [16] was 93 % of control.

`CCCCCCCCSCCO` was tested, and the T/C [13] was 102 % of control and the T/C [14] was 97 % of control.

With `C=C1C(=O)OC2C1CCC(C)C1CCC(=O)OC12C` (configuration not stated) the T/C (dose: 3.13 mg/kg/injection, schedule: Q01DX009 (ip), vehicle: Klucel (hydroxypropylcellulose) (HPC)) was 97 % of control, the T/C (dose: 6.25 mg/kg/injection, schedule: Q01DX009 (ip), vehicle: Klucel (hydroxypropylcellulose) (HPC)) was 103 % of control and the T/C [10] was 100 % of control. For the same compound, the T/C [11] was 101 % of control.

Source: PubChem BioAssay AID192 (DTP/NCI, 2004)
